Measurements as given in ChEMBL document CHEMBL1201862, “PubChem BioAssay data set” (2004).
Where “and” joins values, the source holds several entries; their conditions need not be identical. Equal entries are not always repeated.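 Each compound was tested at five concentrations against cells in 96-well plates for 48 hours. GI50 = concentration required for 50% inhibition of growth.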 Calls of active or inactive are those of the source. No stated cut-off is given here; in the data, active = GI50 up to about 1.1 µM and inactive = higher.

What was measured:
Assay in all cases: NCI anticancer screen, dose series, 48 h
786-0 = system: 786-0
CAKI-1 = system: CAKI-1
EKVX = system: EKVX
HCC 2998 = system: HCC 2998
HOP-62 = system: HOP-62
Hs-578T = system: Hs-578T
MCF7 = system: MCF7
MDA-MB-231 = system: MDA-MB-231
MDA-MB-435 = system: MDA-MB-435
MOLT-4 = system: MOLT-4
NCI-H522 = system: NCI-H522
NCI/ADR-RES = system: NCI/ADR-RES
OVCAR-8 = system: OVCAR-8
SF-295 = system: SF-295
SK-MEL-28 = system: SK-MEL-28
SK-MEL-2 = system: SK-MEL-2
SR = system: SR
UACC-257 = system: UACC-257
A498 = system: A498
CCRF-CEM = system: CCRF-CEM

| Compound | GI50 (786-0) | GI50 (CAKI-1) | GI50 (EKVX) | GI50 (HCC 2998) | GI50 (HOP-62) | GI50 (Hs-578T) | GI50 (MCF7) | GI50 (MDA-MB-231) | GI50 (MDA-MB-435) | GI50 (MOLT-4) | GI50 (NCI-H522) | GI50 (NCI/ADR-RES) | GI50 (OVCAR-8) | GI50 (SF-295) | GI50 (SK-MEL-28) | GI50 (SK-MEL-2) | GI50 (SR) | GI50 (UACC-257) | GI50 (A498) | GI50 (CCRF-CEM) |
| --- | --- | --- | --- | --- | --- | --- | --- | --- | --- | --- | --- | --- | --- | --- | --- | --- | --- | --- | --- | --- |
| O=C(Nc1ccc2cc3ccccc3cc2c1)c1cc2c(cc1Cl)Sc1nccn1S2(=O)=O | 4.73 µM (inactive) | > 100 µM (inactive) | 35.6 µM (inactive) | 6.84 µM (inactive) | 59.6 µM (inactive) | > 100 µM (inactive) | > 100 µM (inactive) | 8.97 µM (inactive) | 28.4 µM (inactive) | 33.4 µM (inactive) | 33.7 µM (inactive) | > 100 µM (inactive) | 26.4 µM (inactive) | 13.4 µM (inactive) | 19.1 µM (inactive) | 85.9 µM (inactive) | 35.2 µM (inactive) | 58.3 µM (inactive) | – | – |
| Nc1nc(N)c2cc(Sc3ccc4nc(N)nc(N)c4c3)ccc2n1 | – | > 100 µM (inactive) | > 100 µM (inactive) | 0.558 µM (active) | > 100 µM (inactive) | > 100 µM (inactive) | – | > 100 µM (inactive) | 0.0522 µM (active) | 0.0524 µM (active) | – | > 31.6 µM (inactive) | 0.181 µM (active) | – | > 100 µM (inactive) | > 100 µM (inactive) | > 100 µM (inactive) | > 100 µM (inactive) | > 100 µM (inactive) | 0.0194 µM (active) |
| Cc1cc(C)c(S(=O)(=O)N(CCCCN)OCCCN)c(C)c1 | – | 17.4 µM (inactive) | 16.4 µM (inactive) | 2.28 µM (inactive) | – | 16 µM (inactive) | 17.7 µM (inactive) | – | 16.6 µM (inactive) | 11.7 µM (inactive) | 16.2 µM (inactive) | 20.7 µM (inactive) | 17.4 µM (inactive) | 19.6 µM (inactive) | 18.3 µM (inactive) | 15.1 µM (inactive) | 9.59 µM (inactive) | 16.2 µM (inactive) | – | 15.7 µM (inactive) |
| CCCn1c(=O)c(N2CCN(c3ccccc3)CC2)nc2sc3ccccc3c21 | > 100 µM (inactive) | > 100 µM (inactive) | > 100 µM (inactive) | – | > 100 µM (inactive) | > 100 µM (inactive) | > 100 µM (inactive) | > 100 µM (inactive) | > 100 µM (inactive) | > 100 µM (inactive) | > 100 µM (inactive) | > 100 µM (inactive) | > 100 µM (inactive) | > 100 µM (inactive) | > 100 µM (inactive) | > 100 µM (inactive) | – | > 100 µM (inactive) | > 100 µM (inactive) | > 100 µM (inactive) |
| O=c1cc(-c2ccncc2)[nH]c2cc3c(cc12)OCO3 | 64.6 µM (inactive) | – | > 100 µM (inactive) | > 100 µM (inactive) | > 100 µM (inactive) | > 100 µM (inactive) | > 100 µM (inactive) | > 100 µM (inactive) | > 100 µM (inactive) | > 100 µM (inactive) | – | > 100 µM (inactive) | > 100 µM (inactive) | > 100 µM (inactive) | > 100 µM (inactive) | > 100 µM (inactive) | – | > 100 µM (inactive) | > 100 µM (inactive) | – |
| Cc1cc(NC(=S)SCc2ccc(F)cc2)c([N+](=O)[O-])cc1C | 33.3 µM (inactive) | 47.2 µM (inactive) | 39.6 µM (inactive) | – | 24.7 µM (inactive) | 13.4 µM (inactive) | 42.1 µM (inactive) | 14.6 µM (inactive) | 26.7 µM (inactive) | 3.29 µM (inactive) | – | 25.8 µM (inactive) | 19 µM (inactive) | 34.5 µM (inactive) | 39.1 µM (inactive) | – | 20.3 µM (inactive) | 21 µM (inactive) | – | – |
| Clc1ccc(C(SCc2ccccc2)SCc2ccccc2)cc1 | > 10 µM (inactive) | > 10 µM (inactive) | > 10 µM (inactive) | > 10 µM (inactive) | > 10 µM (inactive) | > 10 µM (inactive) | > 10 µM (inactive) | > 10 µM (inactive) | – | > 10 µM (inactive) | > 10 µM (inactive) | > 10 µM (inactive) | > 10 µM (inactive) | > 10 µM (inactive) | > 10 µM (inactive) | > 10 µM (inactive) | > 10 µM (inactive) | > 10 µM (inactive) | > 10 µM (inactive) | > 10 µM (inactive) |
| COC(=O)C(C(=O)OC)C1CC(=O)c2c(Br)sc(Br)c21 (configuration not stated) | 26.1 µM (inactive) | 9.06 µM (inactive) | 15.2 µM (inactive) | 14.3 µM (inactive) | 17.3 µM (inactive) | 20.9 µM (inactive) | 13.6 µM (inactive) | – | 17.5 µM (inactive) | 3.33 µM (inactive) | – | 16.8 µM (inactive) | 16.8 µM (inactive) | 21.8 µM (inactive) | 16.6 µM (inactive) | 13.3 µM (inactive) | 12.5 µM (inactive) | 22 µM (inactive) | 31.5 µM (inactive) | 4.03 µM (inactive) |
| CC1(C)[C@@H]2CC[C@]1(C)[C@H](OC(=O)/C=C/c1ccccc1)C2 | 18.1 µM (inactive) | 20.2 µM (inactive) | 19.9 µM (inactive) | 17 µM (inactive) | 30.2 µM (inactive) | 19.5 µM (inactive) | 16.7 µM (inactive) | 19.3 µM (inactive) | 26 µM (inactive) | – | 14.6 µM (inactive) | 18.9 µM (inactive) | 20.8 µM (inactive) | 18 µM (inactive) | 19 µM (inactive) | 17.4 µM (inactive) | – | 23.8 µM (inactive) | 18.3 µM (inactive) | 20.4 µM (inactive) |
| CC1C(C)(C)C23CC12C1(OCCO1)C3Br (configuration not stated) | > 100 µM (inactive) | > 100 µM (inactive) | > 100 µM (inactive) | > 100 µM (inactive) | > 100 µM (inactive) | > 100 µM (inactive) | > 100 µM (inactive) | > 100 µM (inactive) | > 100 µM (inactive) | > 100 µM (inactive) | – | > 100 µM (inactive) | > 100 µM (inactive) | > 100 µM (inactive) | > 100 µM (inactive) | – | > 100 µM (inactive) | > 100 µM (inactive) | > 100 µM (inactive) | > 100 µM (inactive) |
| O=C(O)C1(C(O)c2ccccc2)SCCCS1 (configuration not stated) | > 10 µM (inactive) | – | > 10 µM (inactive) | – | > 10 µM (inactive) | > 10 µM (inactive) | > 10 µM (inactive) | > 10 µM (inactive) | > 10 µM (inactive) | > 10 µM (inactive) | – | – | > 10 µM (inactive) | > 10 µM (inactive) | > 10 µM (inactive) | > 10 µM (inactive) | > 10 µM (inactive) | > 10 µM (inactive) | > 10 µM (inactive) | > 10 µM (inactive) |
| COc1cc(NC(C)CCCN)c2ncccc2c1 (configuration not stated) [PRIMAQUINE PHOSPHATE] | – | 59 µM (inactive) and 62.4 µM (inactive) | > 66.1 µM (inactive) and 77.3 µM (inactive) | 28.2 µM (inactive) and 16.9 µM (inactive) | – | 39.4 µM (inactive) | 16.4 µM (inactive) | 43.7 µM (inactive) | 38 µM (inactive) | 25.2 µM (inactive) and 39.4 µM (inactive) | 90.6 µM (inactive) and 52.1 µM (inactive) | > 100 µM (inactive) | 70.6 µM (inactive) and 63.1 µM (inactive) | 98.2 µM (inactive) and 52.4 µM (inactive) | – | 26.9 µM (inactive) and 45.1 µM (inactive) | – | – | – | 26.7 µM (inactive) and 45.8 µM (inactive) |
